US20090232909A1, “Method for determining physiological effects of hemoglobin” (priority 1999, published 2009)

Tests used:
Hb [1] = biological target: T1, Hb (Homo sapiens, UniProt P68871+P69905); settings: cited from earlier work
Hb [2] = biological target: T1, Hb; assay: Titration of normoxic Hb with NO, fitted UV-visible difference spectra; type: biochemical; parameters: purchased Apex Bioscience (Research Triangle Park, N.C.)
Description: Air-oxygenated Hb was titrated with 0.22 μM NO. Samples were analyzed immediately after NO addition by UV-visible spectrophotometry. Time between additions varied from 3 to 5 minutes.
The extinction coefficient spectra of metHb, deoxyhb, iron nitrosylHb and oxyHb were generated from pure solutions of each species. HbA was diluted into PBS (pH 7.4) to a known final heme concentration [as calculated by the pyridine-hemochromagen method (Antonini, E., et al., p. 13 in Frontiers in Biology, Neuberger, A. and Tatum, E. L. eds., North-Holland Publishing, Co., Amsterdam, London, 1971)]. MetHb was synthesized by adding excess K3FeCN6. DeoxyHb was measured after the addition of dithionite, and nitrosyl- and oxyHb were measured following saturation with each ligand.
Difference spectra were obtained by subtracting the UV-visible spectrum of a given sample before the addition of NO from those after. The simple competition model discussed above, predicts that such difference spectra could be approximated by a linear combination of two standard difference spectra: an oxyHb minus metHb spectrum, which gauges the progress of the NO oxidation reaction, and a deoxyHb minus iron nitrosyHb, which gauges the NO addition reaction; the sum of the combining coefficients is fixed by the mass balance ([NO]0). Standard difference spectra were obtained from UV-visible spectra of authentic samples of metHb, oxyHb, nitrosylHb, and deoxyHb. We determined combining coefficients by a least-squares fitting procedure. Inasmuch as the deoxy- and/or oxyheme concentrations can decline during the competition, an additional component (deoxyHb minus oxyHb) could be expected.
(A) Nitrosyl content of oxyHb (10 mM phosphate 100 μM DTPA, pH 7.4) after exposure to 1.2 μM NO, as measured by photolysis-chemiluminescence (Stamler, J. S., et al., Science, 276:2034-2037, 1997). Nitrosyl yield increases as a function of Hb concentration (P<0.05). Solid symbols, absolute yield of NO bound to Hb (FeNO plus SNO); open symbols, percentage of NO added. Data shown are the average of 7 to 19 experiments±SE. (B) Standard difference spectra of metHb (solid line), deoxyHb (dotted line), and iron nitrosylHb (dashed line) vs. oxyHb. (C) Difference spectra generated from the exposure of NO to normoxic (≈99% oxygen saturation) Hb. NO was added (in 10 aliquots totaling 2.2 μM) to 33 μM Hb in 100 mM phosphate (solid line) or 10 mM phosphate (dotted line) or 10 mM phosphate plus 0.05% borate (dashed line). […] Specifically, spectra in C were fitted, by a least-squares process, to either the simple competition model or the cooperativity model without a mass balance constraint. Cooperativity is present if add increases above that reported in the literature, as a function of oxygen tension.

## [N]=O [NO, nitric oxide]
Hb [1]
  rate constant of NO-mediated oxidation of oxyHb to metHb: 3.7e+07 M⁻¹ s⁻¹
  rate constant of binding of NO to unoccupied hemes in Hb: 2.6e+07 M⁻¹ s⁻¹
Hb [2]; 2.2 μM NO, 33 μM Hb, 10 mM phosphate, ≈99% O2
  iron nitrosylHb in fitted difference spectrum: 54%
Hb [2]; 2.2 μM NO, 33 μM Hb, 100 mM phosphate, ≈99% O2
  metHb in fitted difference spectrum: 95%
Hb [2]; 10 mM (low) phosphate
  added NO accounted for by the spectra: 50%
Hb [2]; 10 mM phosphate plus 0.05% borate
  iron nitrosylHb in fitted difference spectrum: 85%
Hb [2]; low phosphate plus borate
  added NO accounted for by the spectra: 80%
